In PubChem BioAssay (NCI):
Several values for one entry are separate records, joined by “and”; a condition that tells them apart may be missing. Identical values can stand only once.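 Five compound concentrations were applied to cells in 96-well plates for 48 hours; endpoints were derived by simple linear interpolation of the resulting dose-response curve. Definition used: TGI = concentration required for complete inhibition of growth.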

Key:
Test in all cases: growth of human tumour cells (NCI), 48 h
KM20L2 colon = test system: KM20L2 colon
LXFL 529 NSCLC = test system: LXFL 529 NSCLC
M19-MEL melanoma = test system: M19-MEL melanoma
RXF-631 renal = test system: RXF-631 renal
SNB-78 CNS = test system: SNB-78 CNS
XF 498 CNS = test system: XF 498 CNS

In the case of `CCOC12SC(=Nc3ccc(C)cc3)NN1C(=S)N(C)N=C2C` (configuration not stated), the TGI (KM20L2 colon) is reported as > 100 µM, the TGI (LXFL 529 NSCLC) is reported as > 100 µM and the TGI (M19-MEL melanoma) is reported as > 100 µM.

With `COc1nc2[nH]ccc2c(=O)n1C` the TGI (LXFL 529 NSCLC) was > 100 µM, the TGI (RXF-631 renal) was > 100 µM and the TGI (SNB-78 CNS) was > 100 µM. The TGI (XF 498 CNS) was > 100 µM.

For `c1ccc(Nc2nnc(-c3nsc4ccccc34)o2)cc1`, the TGI (KM20L2 colon) was > 100 µM, the TGI (LXFL 529 NSCLC) was > 100 µM and the TGI (M19-MEL melanoma) was > 100 µM. For the same molecule, the TGI (SNB-78 CNS) was > 100 µM.

`COc1ccc(C2=CN3CCC[C@H]3C=C2c2cc(O)c(OC)c(OC)c2)cc1OC` was tested, and the TGI (LXFL 529 NSCLC) was 0.078 µM and 0.376 µM, the TGI (M19-MEL melanoma) was 0.011 µM and the TGI (SNB-78 CNS) was 0.0391 µM.

`COC(=O)c1cccc(C(=O)OC)c1` was tested, and the TGI (LXFL 529 NSCLC) was > 100 µM, the TGI (SNB-78 CNS) was > 100 µM and the TGI (XF 498 CNS) was > 100 µM.
